Assay results as given in patent publication US8008258B2, “Cop 1 for treatment of inflammatory bowel diseases” (Yeda Research and Development Co. Ltd., priority 2003, dated 2011).
Marks after values point to notes of the source that are not given here.

System: TNBS-induced colitis
Assay: TNBS-induced colitis in SJL/J mice, various GA treatment modes
Assay type: in vivo
Design: key to Macroscopic scoring of colon damage: Ulceration (max 10): 0 = completely normal, 10 = most severe ulceration; key to Macroscopic scoring of colon damage: Adhesion (max 2): adhesion score, 0 to 2; key to Macroscopic scoring of colon damage: Diarrhea (max 1): diarrhea score, 0 to 1; key to Macroscopic scoring of colon damage: Thickness (max 1): thickness score, 0 to 1
Conditions: for Decrease in the total histological score: statistically insignificant; for Macroscopic scoring of colon damage: Adhesion (max 2) / Macroscopic scoring of colon damage: Diarrhea (max 1) / Macroscopic scoring of colon damage: Thickness (max 1) / Macroscopic scoring of colon damage: Total Score (max 14) / Macroscopic scoring of colon damage: Ulceration (max 10): scoring 5 days after disease induction
Method: Induction of cholitis in mice. TNBS-colitis was induced by rectal instillation of 2,4,6-trinitrobenzene sulfonic acid 5% (w/v), mixed with an equal volume of ethanol, into anesthetized mice (100 μl/mouse). Each treatment group included 6-12 mice. Mice that died before day 4 were considered as treatment casualties and were not taken into consideration.
Assessment of colitis. Weight changes and survival were monitored daily. Five to eight days following TNBS instillation, mice were sacrificed and macroscopic as well as microscopic colonic damage was evaluated.
Macroscopic colonic scoring. Gross colonic damage was graded according to Reuter et al. (1996), using the combined values of the four standard macroscopic parameters: degree of colonic ulcerations (scale from 0—completely normal, to 10—most severe); intestinal and peritoneal adhesions (0 to 2); diarrhea (0 to 1); and thickness (0 to 1). The total score is the arithmetic sum of the four scores. The evaluation was performed in a blind procedure.
Microscopic scoring. Proximal, medial, and distal portions of colon were fixed in 10% phosphate-buffered formalin. Paraffin-embedded sections were stained with hematoxylin and eosin. The degree of histological damage and inflammation was graded according to Elson et al. (1996) using the combined values of the four microscopic parameters: extent (scale from 0—completely normal, to 2—involving more than one segment); inflammation (0—none to 3—severe); damage (0 to 3—severe transmural); and regeneration (0—complete re-eptihelization to 3—none). The total score is the arithmetic sum of the four scores. The evaluation was performed in a blind procedure.
Oral treatment—250 μg/day in PBS, fed by gastric intubation with an 18-gauge stainless steel feeding needle. Unless otherwise stated, feedings were performed on days-7, -5, -3, -1, 0, 2, 4 and 6, relative to the day of TNBS instillation. […]
To explore whether the beneficial effect of GA on TNBS-induced colitis is restricted to oral administration in the BALB/c strain or represents a more general effect, we studied the ability of GA administered by different routes and dosages to inhibit TNBS-induced colitis in two additional strains of mice.

[1] = GA injected daily (from day −7), 2.5 mg/mouse SC
[2] = GA oral every other day (from day −7), 0.25 mg, 8 feedings

glatiramer acetate [GA]
Reduction in macroscopic score versus untreated control (GA daily injections from day −7): 2.7 fold | Mortality (succumbed) (daily injection of GA): 8% | Inhibition of weight loss caused by TNBS colitis (daily-injected mice): major significant inhibition of weight loss | Decrease in the total histological score (feeding): 0.5 points | Decrease in the total histological score (injection): 1.8 points | Decrease in the total macroscopic score versus untreated mice (oral treatment with GA): 1.7 Points | Mortality rate (oral treatment with GA, by day 5): 18% | Inhibition of weight loss caused by TNBS colitis (orally-treated mice): modest, statistically insignificant, inhibition of weight loss | Macroscopic scoring of colon damage: Adhesion (max 2) [1]: 1.2 | Macroscopic scoring of colon damage: Diarrhea (max 1) [1]: 0.5 | Macroscopic scoring of colon damage: Thickness (max 1) [1]: 0.5 | Macroscopic scoring of colon damage: Total Score (max 14) [1]: 5.7* | Macroscopic scoring of colon damage: Ulceration (max 10) [1]: 3.5 | Macroscopic scoring of colon damage: Adhesion (max 2) [2]: 1.8 | Macroscopic scoring of colon damage: Diarrhea (max 1) [2]: 0.9 | Macroscopic scoring of colon damage: Thickness (max 1) [2]: 0.9 | Macroscopic scoring of colon damage: Total Score (max 14) [2]: 10.7 | Macroscopic scoring of colon damage: Ulceration (max 10) [2]: 7.1
